experiment: Log P by HPLC on reversed phase columns (EEC directive 79/831 Annex V.A8); type: physicochemical; conditions: not given
Description: Measurement of Log P values was performed according to EEC directive 79/831 Annex V.A8 by HPLC (High Performance Liquid Chromatography) on reversed phase columns with the following methods: • ^[a]
If more than one Log P value is available within the same method, all the values are given and separated by “+”.
Lambda-max-values were determined using UV-spectra from 200 nm to 400 nm and the peak values of the chromatographic signals.

LogP	SMILES
2.69^[a]	OC(Cc1ccnc(Cl)c1)(Cn1cncn1)c1ccc(Oc2ccc(F)cc2F)cc1 (stereo not shown) [Example I-25]
1.84^[a]	OC(Cc1ccnc(Cl)c1F)(Cn1cncn1)c1ccccc1 (stereo not shown) [Example I-49]
1.91^[a]	OC(Cc1ccnc(Cl)c1F)(Cn1cncn1)c1ccc(F)cc1 (stereo not shown) [Example I-23]
2.57^[a]	OC(Cc1ccnc(Cl)c1)(Cn1cncn1)c1ccc(Oc2ccccc2)cc1 (stereo not shown) [Example I-24]
1.86^[a]	OC(Cc1ccncc1Cl)(Cn1cncn1)c1ccc(Cl)cc1 (stereo not shown) [Example I-11]
2.43^[a]	OC(Cc1cc(F)ncc1Cl)(Cn1cncn1)c1ccc(Cl)cc1 (stereo not shown) [Example I-28]
1.47^[a]	OC(Cc1ccncc1F)(Cn1cncn1)c1ccc(F)cc1F (stereo not shown) [Example I-43]
1.99^[a]	OC(Cc1cccnc1Cl)(Cn1cncn1)c1ccc(Cl)cc1 (stereo not shown) [Example I-52]
1.96^[a]	OC(Cc1cc(Cl)ncc1F)(Cn1cncn1)c1ccc(F)cc1 (stereo not shown) [Example I-32]
1.97^[a]	OC(Cc1cccnc1Cl)(Cn1cncn1)c1cccc(Cl)c1 (stereo not shown) [Example I-17]
1.61^[a]	OC(Cc1cccnc1Cl)(Cn1cncn1)c1ccccc1 (stereo not shown) [Example I-51]
1.86^[a]	OC(Cc1cc(Cl)ncc1F)(Cn1cncn1)c1ccccc1 (stereo not shown) [Example I-48]
3.02^[a]	OC(Cc1cc(F)ncc1Cl)(Cn1cncn1)c1ccc(Oc2ccccc2)cc1 (stereo not shown) [Example I-34]
2.65^[a]	CC(C)(C)c1noc(-c2ccc(C(O)(Cc3ccncc3Cl)Cn3cncn3)cc2)n1 (stereo not shown) [Example I-38]
2.47^[a]	COC(Cc1ccnc(Cl)c1F)(Cn1cncn1)c1ccc(F)cc1F (stereo not shown) [Example I-57]
2.22^[a]	OC(Cc1cccnc1Cl)(Cn1cncn1)c1ccc(C(F)(F)F)cc1 (stereo not shown) [Example I-16]
1.60^[a]	OC(Cc1ccnc(Cl)c1)(Cn1cncn1)c1ccccc1 (stereo not shown) [Example I-37]

SMILES	LogP
OC(Cc1ccnc(Cl)c1)(Cn1cncn1)c1ccc(Cl)cc1Cl (stereo not shown) [Example I-50]	2.42^[a]
OC(Cc1ccnc(Cl)c1F)(Cn1cncn1)c1ccc(F)cc1F (single isomer, unassigned) [Example I-55]	2.21^[a]
OC(Cc1cc(F)ncc1Cl)(Cn1cncn1)c1ccccc1 (stereo not shown) [Example I-14]	2.02^[a]
OC(Cc1ccnc(Cl)c1F)(Cn1cncn1)c1ccc(F)cc1F (single isomer, unassigned) [Example I-56]	2.21^[a]
OC(Cc1ccncc1Cl)(Cn1cncn1)c1ccc(Oc2ccccc2)cc1 (stereo not shown) [Example I-01]	2.46^[a]
OC(Cc1ccncc1Cl)(Cn1cncn1)c1ccc(Cl)cc1Cl (stereo not shown) [Example I-42]	2.38^[a]
OC(Cc1cc(F)ncc1Cl)(Cn1cncn1)c1ccc(F)cc1F (stereo not shown) [Example I-41]	2.35^[a]

same assay, conditions: Table 1, formula (I); method [a]: LC-UV, acidic range, 0.1% formic acid in water and acetonitrile

SMILES	LogP
OC(Cc1ccnc(Cl)c1)(Cn1cncn1)c1ccc(-c2ccccc2)cc1 (stereo not shown) [Example I-39]	2.57^[a]
OC(Cc1ccncc1F)(Cn1cncn1)c1ccc(-c2ccccc2)cc1 (stereo not shown) [Example I-04]	2.13^[a]

same assay, conditions: Table 2, epoxides of formula (XII); method [a]: LC-UV, acidic range, 0.1% formic acid in water and acetonitrile

SMILES	LogP
CC(C)(C)c1noc(-c2ccc(C3(Cc4ccncc4Cl)CO3)cc2)n1 (stereo not shown) [XII-65]	4.25^[a]
Clc1cncc(Cl)c1CC1(c2ccc(Oc3ccccc3)cc2)CO1 (racemic) [XII-51]	4.76^[a]
Fc1cc(CC2(c3ccc(-c4ccccc4)cc3)CO2)c(Cl)cn1 (racemic) [XII-42]	4.64^[a]
Fc1ccc(C2(Cc3cc(F)ncc3Cl)CO2)c(F)c1 (racemic) [XII-35]	3.46^[a]
Fc1ccc(C2(Cc3ccnc(Cl)c3F)CO2)cc1 (racemic) [XII-50]	3.11^[a]
Clc1ccc(C2(Cc3ccncc3Cl)CO2)c(Cl)c1 (stereo not shown) [XII-31]	3.06^[a]
Fc1cccc(F)c1C1(Cc2ccncc2Cl)CO1 (stereo not shown) [XII-66]	2.50^[a]
Clc1ccc(C2(Cc3cccnc3Cl)CO2)cc1 (stereo not shown) [XII-24]	3.25^[a]
Fc1cc(CC2(c3ccccc3Cl)CO2)c(Cl)cn1 (racemic) [XII-38]	3.80^[a]
Clc1cnccc1CC1(c2ccc(Oc3ccccc3)cc2)CO1 (stereo not shown) [XII-32]	3.80^[a]
Fc1cnc(Cl)cc1CC1(c2ccc(Oc3ccccc3)cc2)CO1 (stereo not shown) [XII-18]	4.23^[a]
Fc1ccc(Oc2ccc(C3(Cc4c(Cl)cncc4Cl)CO3)cc2)c(F)c1 (racemic) [XII-52]	4.70^[a]
Fc1ccc(C2(Cc3ccncc3Cl)CO2)c(F)c1 (stereo not shown) [XII-34]	2.76^[a]
Clc1ccccc1COc1cccc(C2(Cc3ccncc3Cl)CO2)c1 (racemic) [XII-63]	4.30^[a]
Clc1cccc(C2(Cc3cccnc3Cl)CO2)c1 (stereo not shown) [XII-23]	3.24^[a]
Fc1ccc(Oc2ccc(C3(Cc4cc(Cl)ncc4F)CO3)cc2)c(F)c1 (stereo not shown) [XII-21]	4.17^[a]
Fc1ccc(Oc2ccc(C3(Cc4ccnc(Cl)c4)CO3)cc2)c(F)c1 (stereo not shown) [XII-12]	3.85^[a]
Fc1c(CC2(c3ccccc3Cl)CO2)ccnc1Cl (racemic) [XII-49]	3.47^[a]
Clc1ccccc1C1(Cc2c(Cl)cncc2Cl)CO1 (racemic) [XII-59]	4.04^[a]
Clc1cc(CC2(c3ccc(-c4ccccc4)cc3)CO2)ccn1 (stereo not shown) [XII-13]	3.89^[a]
Clc1ccc(C2(Cc3ccncc3Cl)CO2)cc1 (stereo not shown) [XII-30]	3.15^[a]

SMILES	LogP
Clc1cc(CC2(c3ccc(Oc4ccccc4)cc3)CO2)ccn1 (stereo not shown) [XII-9]	3.37^[a]
Clc1cnccc1CC1(c2c(Cl)cccc2Cl)CO1 (racemic) [XII-62]	3.02^[a]
Fc1ccc(Oc2ccc(C3(Cc4ccnc(Cl)c4F)CO3)cc2)c(F)c1 (racemic) [XII-44]	4.20^[a]
Fc1c(CC2(c3ccc(-c4ccccc4)cc3)CO2)ccnc1Cl (racemic) [XII-45]	4.25^[a]
Clc1ccc(C2(Cc3c(Cl)cncc3Cl)CO2)c(Cl)c1 (racemic) [XII-54]	4.76^[a]
Fc1cnccc1CC1(c2ccc(Cl)cc2Cl)CO1 (stereo not shown) [XII-3]	3.19^[a]
Fc1ccc(Oc2ccc(C3(Cc4ccncc4Cl)CO3)cc2)c(F)c1 (stereo not shown) [XII-33]	3.80^[a]
Clc1cnccc1CC1(c2cccc(Cl)c2Cl)CO1 (racemic) [XII-61]	3.53^[a]
N#Cc1ccc(C2(Cc3cccnc3Cl)CO2)cc1 (stereo not shown) [XII-26]	2.35^[a]
Clc1cnccc1CC1(c2ccc(-c3ccccc3)cc2)CO1 (stereo not shown) [XII-28]	3.85^[a]
Fc1ccc(C2(Cc3ccncc3F)CO2)cc1 (stereo not shown) [XII-4]	2.23^[a]
Fc1ccc(C2(Cc3ccncc3Cl)CO2)cc1 (stereo not shown) [XII-27]	2.65^[a]
Fc1c(CC2(c3ccc(Cl)cc3Cl)CO2)ccnc1Cl (racemic) [XII-46]	3.02^[a]
Fc1cnc(Cl)cc1CC1(c2ccc(Cl)cc2Cl)CO1 (stereo not shown) [XII-19]	4.17^[a]
Clc1ccc(C2(Cc3ccnc(Cl)c3)CO2)c(Cl)c1 (stereo not shown) [XII-10]	3.85^[a]
FC(F)(F)c1ccc(C2(Cc3cccnc3Cl)CO2)cc1 (stereo not shown) [XII-25]	3.46^[a]
Clc1ccccc1COc1ccc(C2(Cc3ccncc3Cl)CO2)cc1 (racemic) [XII-64]	4.30^[a]
Clc1cnccc1CC1(c2ccccc2Cl)CO1 (stereo not shown) [XII-29]	3.02^[a]
Fc1cc(CC2(c3ccc(Cl)cc3)CO2)c(Cl)cn1 (racemic) [XII-37]	3.85^[a]
Clc1ccc(C2(Cc3c(Cl)cncc3Cl)CO2)cc1 (racemic) [XII-57]	4.10^[a]

— patent US20180339976A1, “NOVEL TRIAZOLE DERIVATIVES” (priority 2015, published 2018)
